Data reported in publication PMC9586926, “An efflux-susceptible antibiotic-adjuvant with systemic efficacy against mouse infections” (Scientific Reports, 2022).
Values after ≈ are worked out from the molar mass of the structure shown. Where a SMILES comes first, the peptide text is derived from it. [ ]: non-standard residue; d: D form. The star is where a group is joined. 12Ado = NCCCCCCCCCCCC(=O)O; Decanoyl = CCCCCCCCCC(=O)*; Dap = NC[C@H](N)C(=O)O

Key:
HEK-293FT = test: Cytotoxicity, Alamar blue; assay type: cell-based, human; conditions: 24 h incubation, read-out: IC50 HEK-293FT (50% inhibition of cells respiration)
Description: (§1) Cell lines used in this study included murine RAW 264.7 macrophages and human embryonic kidney HEK-293FT cells (ATCC, Biological Industries, Beit Haemek, Israel). Cells were grown in Dulbecco’s modified eagle medium (DMEM) containing […] glucose, L-glutamine, sodium bicarbonate and sodium pyruvate, supplemented with 10% fetal bovine serum and pen-strep, at 37 °C and 5% CO2.
(§2) Lipopeptides cytotoxicity was determined using fluorescent measurements of reduced resazurin. 2 × 10^4 cells were first cultured in 96-well plates over-night (final volume of 100 µl) at 37 °C and 5% CO2. Then, the medium was removed and cells were incubated for an additional 24 h with serial twofold dilutions of the lipopeptides in growth medium. Then, 10 µl of Alamar blue were added and plates were incubated for 3 h, after which fluorescence (excitation: 530 nm; emission: 590 nm) of the reduced resazurin was recorded (BioTek Instruments Synergy HT; Winooski, VT, USA).

[1] = system: S. Typhimurium 14028 (wild-type); conditions: cited from earlier work
Source text: Table 2 Effect of RND pumps on growth-inhibitory activity. | column: MIC^a (µM) in LB / S. Typhimurium / Wild-Type

murine RBC = test: Hemolysis; assay type: cell-based; conditions: 1% hematocrit murine RBC, 3 h, 37 °C
Description: Permeabilization of red blood cells (RBC) was evaluated using absorbance measurements of extracellular hemoglobin. Serial twofold dilutions of lipopeptides were incubated with 1% hematocrit of murine RBC for 3 h at 37 °C with shaking. Samples were then centrifuged at 20,000 RCF for 5 min, and absorbance of the supernatants was measured at 450 nm (BioTek Instruments Synergy HT; Winooski, VT, USA). Percent hemolysis was then calculated by (AS − AN)/(AP − AN) × 100; where AS, AN, and AP represent the absorbance of the sample, negative control (PBS) and positive control (Milli-Q water), respectively. LC50 values were extracted from trend-lines generated for linear-regions of plots correlating lipopeptide concentrations and percent hemolysis.

A. baumannii = test: MIC, broth microdilution; assay type: cell-based, Acinetobacter baumannii; conditions: broth microdilution in LB, 18–24 h, 37 °C; n = 1 strain
Source text: (§3) Bacteria used in this study consisted of standard American Type Culture Collection (ATCC; Biological Industries, Beit Haemek, Israel) strains, clinically isolated (CI; Sourasky Medical Center, Tel Aviv, Israel) strains, as well as isogenic mutant strains. Gram-negative bacteria included Acinetobacter baumannii ATCC 19606; Escherichia coli ATCC 25922, 35218, CFT073, CI 14384, 16327, and the isogenic pair Ag100 (wild-type) and its efflux deficient mutant Ag100a (ΔacrAB); Klebsiella pneumoniae CI 1287, 224; Pseudomonas aeruginosa ATCC 27853, CI 1278, 8634; Salmonella enterica serovar Typhimurium ATCC 14028 (wild-type) and its isogenic efflux deficient mutant ΔacrAB. Bacteria were grown in Luria–Bertani broth (LB; 5 g/l NaCl, 5 g/l yeast extract, 10 g/l tryptone; pH = 7.0) at 37 °C with shaking. Over-night cultures were diluted 10-folds into fresh growth-medium and incubated at 37 °C with shaking until reaching mid-logarithmic phase. Then, bacterial concentrations were adjusted using O.D.600 nm measurements, and bacteria were subjected to the experimental procedures listed herein.
(§4) MIC was determined according to the broth microdilution method: antimicrobials were subjected to serial twofold dilutions in LB medium, and incubated with 5 × 10^5 CFU/ml of bacteria (final volume of 200 µl) for 18–24 h at 37 °C. Then, O.D.620 nm was measured (BioTek Instruments Synergy HT; Winooski, VT, USA), and the MIC was defined as the lowest antimicrobial concentration for which no increase in O.D.620 nm was evident, compared to the untreated control.

[2] = system: E. coli Ag100 (wild-type); conditions: cited from earlier work
Source text: Table 2 Effect of RND pumps on growth-inhibitory activity. | column: MIC^a (µM) in LB / E. coli / Wild-Type

P. aeruginosa = test: MIC, broth microdilution; assay type: cell-based, Pseudomonas aeruginosa; conditions: broth microdilution in LB, 18–24 h, 37 °C; n = 3 strains
Source text: as §3, §4

E. coli 25922 [3] = conditions: same assessment tools; cited from earlier work
Source text: To our knowledge, the finding of an adjuvant whose activity is enhanced—rather than repressed—after efflux, is hitherto unreported. One might ask, at this point: If the K-, O and B-based analogs are efflux substrates (as implied by MIC data, Table 2), how come only C10BBc12B is positively affected by efflux?

RAW 264.7 = test: Cytotoxicity, Alamar blue; assay type: cell-based, murine; conditions: 24 h incubation, read-out: IC50 RAW 264.7 (50% inhibition of cells respiration)
Description: as §1, §2

[4] = system: S. Typhimurium 14028ΔAcrAB; conditions: cited from earlier work
Source text: Table 2 Effect of RND pumps on growth-inhibitory activity. | column: MIC^a (µM) in LB / S. Typhimurium / Mutant

K. pneumoniae = test: MIC, broth microdilution; assay type: cell-based, Klebsiella pneumoniae; conditions: broth microdilution in LB, 18–24 h, 37 °C; n = 2 strains
Source text: as §3, §4

E. coli = test: MIC, broth microdilution; assay type: cell-based, Escherichia coli; conditions: broth microdilution in LB, 18–24 h, 37 °C; n = 4 strains; published data in bold (not discernible)
Source text: as §3, §4

E. coli Ag100a (ΔacrAB) = conditions: cited from earlier work
Source text: Table 2 Effect of RND pumps on growth-inhibitory activity. | column: MIC^a (µM) in LB / E. coli / Mutant

[5] = parameters: method as in PMID 20480482; conditions: cited from earlier work
[6] = system: Gram-negative ESKAPE pathogens; test: MIC against 10 bacterial strains of the four Gram-negative ESKAPE species; assay type: cell-based
Source text: as §3
MIC was determined according to the broth microdilution method: antimicrobials were subjected to serial twofold dilutions in LB medium, and incubated with 5 × 10^5 CFU/ml of bacteria (final volume of 200 µl) for 18–24 h at 37 °C. […]

E. coli 25922 [7] = test: Peritonitis-sepsis infection model in neutropenic mice; assay type: in vivo; conditions: n = 10
Description: (§5) The study is reported in accordance with ARRIVE guidelines.
(§6) Lipopeptides potential application in monotherapy and/or combination-therapies was explored with two infection models. In the peritonitis-sepsis model, mice (n = 10 per group) were first rendered neutropenic by two intraperitoneal (I.P.) injections of 0.3 ml containing 150 mg/kg and 100 mg/kg cyclophosphamide, administered 4 days and 1 day before the experiment, respectively. […] Mice survival was recorded for up to 7 days. In a variant assay, bacteria in PBS (1.4 × 10^6) were pre-treated with 10 µM lipopeptides for 15 min, similarly administered, and mice survival was recorded for up to 3 days. In the urinary-tract infection (UTI) model, mice (N = 5 mice per group) were anesthetized by a single I.P. injection (0.2 ml) containing a mixture of ketamine (100 mg/kg) and xylazine (5 mg/kg). Following application of an analgesic 2% lidocaine gel on their penises, mice were infected intra-urethraly using a 24-gauge catheter with 1.2 × 10^8 CFU/mouse (0.05 ml) and treated with the vehicle control (S.C., 1 h post-infection), 2 mg/kg rifampin (oral gavage, immediately before anesthesia), 7.5 mg/kg q.i.d. lipopeptides (S.C., starting 1 h post-infection), or both. Mice were sacrificed 24 h post-infection, their bladder and kidneys aseptically excised, suspended in 5 ml of sterile PBS, homogenized for 3 min using a bench-top homogenizer, serially tenfold diluted in saline, plated on LB agar, and incubated over-night at 37 °C for enumeration.

K. pneumoniae 1287 = test: Combination with antibiotics, modified checkerboard titration; assay type: cell-based, Klebsiella pneumoniae
Description: as §4
(§7) Lipopeptides and antibiotics combinations were assessed using a modified version of the checkerboard titration method: Antibiotics MIC was determined in LB medium containing sub-inhibitory lipopeptide concentrations. The sensitization factor (SF)[46] was then calculated by SF = MICA/MICC, where “MICA” is the antibiotic MIC in absence of an adjuvant and “MICC “ is the antibiotic MIC in presence of an adjuvant, for a specified adjuvant concentration. Combinations were classified as synergistic when antibiotics MIC were decreased by > 4 folds. Alternatively, the fractional inhibitory concentration index (FICI) was calculated by FICI = MICC1/MICA1 + MICC2/MICA2, where “MICC1” and “MICC2” respectively specify the antibiotic and the adjuvant MIC values upon their combination, whereas “MICA1” and “MICA2” respectively specify the antibiotic and the adjuvant MIC values when tested individually. Combinations were classified as synergistic for FICI < 0.5.

UPEC CFT073 = test: Urinary-tract infection model; assay type: in vivo, mice; conditions: 24 h post-infection; 2 mg/kg rifampin, 7.5 mg/kg q.i.d. C10BBc12B or both; n = 5
Description: as §5, §6

A. baumannii 19606 = test: Selective pressure, MIC evolution over 15 consecutive subcultures; conditions: in absence of C10BBc12B
Description: The likelihood of antimicrobial-resistance development was assessed by recording MIC changes upon consecutive rounds of antimicrobials application, as in the MIC assay. Following each round, bacteria from wells corresponding to ½ of the resulting MIC were regrown in fresh media to mid-logarithmic phase and subjected to the same procedure for 15 consecutive days[66].

E. coli 25922 [8] = test: Growth / time-kill kinetics; assay type: cell-based, Escherichia coli; conditions: 10 µM C10BBc12B, 1 µg/ml erythromycin or 20 ng/ml rifampin alone
Description: Antimicrobials mode of action was determined according to the rate of bacterial killing. Varying concentrations of lipopeptides, antibiotics and combinations thereof were mixed in LB medium with 5 × 10^5 CFU/ml of bacteria (final volume of 1 ml) and incubated at 37 °C with shaking. At the designated time-points aliquots were serially tenfold diluted in saline, plated on LB agar, and incubated over-night at 37 °C for enumeration.

E. coli 25922 [9] = assay type: cell-based, Escherichia coli; conditions: E. coli
Description: as §4, §7

Compound | IC50 (HEK-293FT) [µM] | MIC (µM) in LB, S. Typhimurium Wild-Type [1] [µM] | LC50 Erythrocytes (50% hemolysis) (murine RBC) [µM] | MIC A. baumannii (n=1) (A. baumannii) [µM] | MIC (µM) in LB, E. coli Wild-Type [2] [µM] | IC50 (RAW 264.7) [µM] | MIC (µM) in LB, S. Typhimurium Mutant [4] [µM] | MIC K. pneumoniae (n=2) (K. pneumoniae) [µM] | MIC E. coli (n=4) (E. coli) [µM] | MIC (µM) in LB, E. coli Mutant (E. coli Ag100a (ΔacrAB)) [µM] | antibiotic MIC after 15 consecutive subcultures (A. baumannii 19606) | antibiotic MIC before subculturing (A. baumannii 19606) [µg/mL] | effect on bacterial proliferation, individual agent (E. coli 25922 [8]) | further results
CCCCCCCCCC(=O)N[C@@H](CCCCN)C(=O)N[C@@H](CCCCN)C(=O)NCCCCCCCCCCCC(=O)N[C@@H](CCCCN)C(N)=O [C10KKc12K] (Decanoyl-KK[12Ado]K-NH2) | > 50 | > 50 | > 50 | > 50 | > 50 | > 50 | 25 (≈ 18.8 µg/mL) | ≥ 50 | ≥ 50 | 6.2 (≈ 4.67 µg/mL) | – | – | – | MIC P. aeruginosa (n=3) (P. aeruginosa): > 50 µM; CM depolarization (E. coli 25922 [3]): interact with the CM to the point of inducing its depolarization
CCCCCCCCCC(=O)N[C@@H](CN)C(=O)N[C@@H](CN)C(=O)NCCCCCCCCCCCC(=O)N[C@@H](CN)C(N)=O [C10PPc12P] (Decanoyl-[Dap][Dap][12Ado][Dap]-NH2) | > 50 | – | 26 | > 50 | – | > 50 | – | ≥ 50 | 12.5 to 25 | – | – | – | – | side-chain β-NH2 group pKa [5]: 6.3; MIC [6]: occasionally presented somewhat lower MIC values
CO[C@H]1/C=C/O[C@@]2(C)Oc3c(C)c(O)c4c(O)c(c(/C=N/N5CCN(C)CC5)c(O)c4c3C2=O)NC(=O)/C(C)=C\C=C\[C@H](C)[C@H](O)[C@@H](C)[C@@H](O)[C@@H](C)[C@H](OC(C)=O)[C@@H]1C [Rifampin, reference compound] | – | 19.4 (≈ 16 µg/mL) | – | – | 19.4 (≈ 16 µg/mL) | – | 19.4 (≈ 16 µg/mL) | – | – | 19.4 (≈ 16 µg/mL) | 8 µg/mL | 2 | unable to significantly alter bacterial proliferation | survival rate, monotherapy (E. coli 25922 [7]; 1.7 × 10^6 CFU/mouse, […] C10BBc12B S.C. 1 h post-infection or 20 mg/kg rifampin oral gavage): 50%; efficacy, monotherapy, higher inoculum (E. coli 25922 [7]; 1.9 × 10^6 CFU/mouse, […] C10BBc12B S.C. or 20 mg/kg rifampin oral): virtually no efficacy; antibiotic MIC in presence of C10BBc12B (K. pneumoniae 1287): below 1 ng/ml; bladder bacterial load (UPEC CFT073): no reduction in bacterial load; antibiotic MIC in presence of C10BBc12B (E. coli 25922 [9]): below 1 ng/ml
CC[C@H]1OC(=O)[C@H](C)[C@@H](O[C@H]2C[C@@](C)(OC)[C@@H](O)[C@H](C)O2)[C@H](C)[C@@H](O[C@@H]2O[C@H](C)C[C@H](N(C)C)[C@H]2O)[C@](C)(O)C[C@@H](C)C(=O)[C@H](C)[C@@H](O)[C@]1(C)O [Erythromycin] | – | > 50 | – | – | > 50 | – | 6.8 (≈ 4.99 µg/mL) | – | – | 10.9 (≈ 8 µg/mL) | 8,192 µg/ml | 64 | unable to significantly alter bacterial proliferation | antibiotic inhibitory concentration in absence of adjuvant (K. pneumoniae 1287): 512 µg/mL; antibiotic inhibitory concentration in presence of C10BBc12B (K. pneumoniae 1287): 0.250 µg/mL
